# pIC50: −log10 of the molar value.
# How the values were obtained:
# p38 γ = target: T1, p38 γ (Homo sapiens, UniProt P53778); experiment: Radiometric in vitro kinase assay (SignalChem), p38 γ; type: biochemical; design: purchased SignalChem (assay service); conditions: 200 nM
# T1 sequence (P53778 1-367): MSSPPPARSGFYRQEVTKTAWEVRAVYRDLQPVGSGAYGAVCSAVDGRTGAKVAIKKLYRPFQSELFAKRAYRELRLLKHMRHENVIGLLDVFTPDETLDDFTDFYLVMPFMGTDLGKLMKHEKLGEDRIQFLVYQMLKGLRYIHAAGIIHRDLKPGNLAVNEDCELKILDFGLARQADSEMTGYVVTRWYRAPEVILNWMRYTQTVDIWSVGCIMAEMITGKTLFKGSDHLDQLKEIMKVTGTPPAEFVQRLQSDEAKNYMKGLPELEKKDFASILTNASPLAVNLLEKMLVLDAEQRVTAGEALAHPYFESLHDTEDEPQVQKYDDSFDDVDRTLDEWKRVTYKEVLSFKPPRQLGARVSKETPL
# Experimental: Radiometric in vitro kinase assay: Radiometric in vitro kinase assay was performed by [sequence]
# H3K27 acetylation = experiment: Immunofluorescence confocal microscopy of H3K27 acetylation; type: cell-based, human; conditions: 800 nM, 10 hr
# Experimental: Immunofluorescence Confocal microscopy: Hut 78 Cells were cytospun unto the slides and fixed with 3.8% paraformaldehyde for 30 min at room temperature (RT) and then permeabilized with 0.25% Triton X-100 in PBS, for 10 min at RT. The cells were washed twice with PBS and blocked in 3% BSA in PBS for 1 h at RT. […] Coverslips were permanently mounted with DAPI (life Technologies) for nuclear staining. Observations were carried out using a confocal laser scanning microscope (zeiss LSM 700). Primary antibodies were used at the following dilutions: anti-ß-tubulin (1:200), H3K27 ac (CST, dilution 1:500), p-p38 (CST, dilution 1:500), DLGH1 (abcam) 1:1000.
# Hut78 cells = experiment: NanoString RNA gene expression profiling, Hut78; type: cell-based, human; conditions: 50 nM, 10 h
# Experimental: All samples were validated. Data were analyzed using nSolver 3.0 digital analyzer software and R program.
# [1] = target: T2, human recombinant p38 α protein (Homo sapiens, UniProt Q16539); experiment: ADP-Glo in vitro kinase assay, p38α; type: biochemical
# T2 construct: human recombinant p38 α, β, γ or δ protein (active full-length); purchased SignalChem; host or cells: baculovirus in Sf9 insect cells
# Experimental: (§1) Kinase assay in vitro: Kinase enzyme assays in vitro were performed using ADP-Glo kit (Promega, Wis.). The luminescent ADP-Glo kinase assay measures ADP produced from ATP consumption in a kinase enzyme reaction. All compounds have been tested and shown no inhibition to luciferase activities. Briefly, in this experiment, human recombinant p38 α, β, γ or δ protein (active full-length) expressed by baculovirus in sf9 insect cells (SignalChem, Vancouver, Canada) was homogenized in wells of white opaque 96-well microplates with the kinase buffer that consisted of 40 mM Tris-HCl (pH 7.5), 20 mM MgCl2, 0.1 mg/mL BSA and 50 μM DTT. […] Next, synthetic peptide substrates ([…]) were added to the mixture at final concentration of 0.2 μg/μL, followed by adding ATP at various concentrations. The 50 μL mixture was reacted at room temperature for 60 min. […]
# (§2) In vitro kinase assay (ADP-GLO): We identified p38γ inhibitors using in vitro kinase assay by screening a library of kinase inhibitors: The library consists of 244 compounds on three plates (EMD Cat #539744, #539745, and #539746) that are mostly ATP mimics. […] IC50 values were determined using […] software (Biosoft, Cambridge, United Kingdom).
# p38β = target: T3, p38β (Homo sapiens, UniProt Q15759); experiment: ADP-Glo in vitro kinase assay, p38β; type: biochemical
# T3 construct: human recombinant p38 α, β, γ or δ protein (active full-length); purchased SignalChem; host or cells: baculovirus in Sf9 insect cells
# Experimental: as §1, §2
# PI3K p110γ = PI3K p110γ (Homo sapiens, UniProt P48736); conditions: summarized from Selleck and Apexbio; read-out: IC50 of PI3K Isoforms, p110γ; cited from earlier work
# p38γ = p38γ mRNA level and protein expression (Western blot); type: cell-based; conditions: 4 hr
# Text: qRT-PCR (real-time quantitative reverse transcription PCR): Total RNA was generated using TRIZOL reagent (Life Technologies, Carlsbad, Calif.) followed by double DNase treatment and column purification using Qiagen RNeasy Clean-up (Qiagen, Germantown, Md.). The Invitrogen […] III First-Strand Synthesis System was used for cDNA synthesis and TaqMan 5700 Sequence Detection System (Applied Biosystems, Foster City, Calif.) were used for qRT-PCR. All PCR reactions were run in triplicate. The amplified transcripts were quantified using the comparative CT method as described. cDNA and primers for MAPK11, 12, 13, and 14 and GAPDH (Table 9) were added to SYBR GREEN PCR Master Mix (SYBR Green I Dye, […]® DNA polymerase, dNTPs with dUTP and optimal buffer components; Applied Biosystems) and subjected to PCR amplification (1 cycle at 95° C. for 3 min; 35 cycles at 95° C. for 15 s and 55° C. for 30 s; 1 cycle at 50° C. for 2 min).
# Chain of PI3K p110γ (P48736 whole entry, canonical isoform): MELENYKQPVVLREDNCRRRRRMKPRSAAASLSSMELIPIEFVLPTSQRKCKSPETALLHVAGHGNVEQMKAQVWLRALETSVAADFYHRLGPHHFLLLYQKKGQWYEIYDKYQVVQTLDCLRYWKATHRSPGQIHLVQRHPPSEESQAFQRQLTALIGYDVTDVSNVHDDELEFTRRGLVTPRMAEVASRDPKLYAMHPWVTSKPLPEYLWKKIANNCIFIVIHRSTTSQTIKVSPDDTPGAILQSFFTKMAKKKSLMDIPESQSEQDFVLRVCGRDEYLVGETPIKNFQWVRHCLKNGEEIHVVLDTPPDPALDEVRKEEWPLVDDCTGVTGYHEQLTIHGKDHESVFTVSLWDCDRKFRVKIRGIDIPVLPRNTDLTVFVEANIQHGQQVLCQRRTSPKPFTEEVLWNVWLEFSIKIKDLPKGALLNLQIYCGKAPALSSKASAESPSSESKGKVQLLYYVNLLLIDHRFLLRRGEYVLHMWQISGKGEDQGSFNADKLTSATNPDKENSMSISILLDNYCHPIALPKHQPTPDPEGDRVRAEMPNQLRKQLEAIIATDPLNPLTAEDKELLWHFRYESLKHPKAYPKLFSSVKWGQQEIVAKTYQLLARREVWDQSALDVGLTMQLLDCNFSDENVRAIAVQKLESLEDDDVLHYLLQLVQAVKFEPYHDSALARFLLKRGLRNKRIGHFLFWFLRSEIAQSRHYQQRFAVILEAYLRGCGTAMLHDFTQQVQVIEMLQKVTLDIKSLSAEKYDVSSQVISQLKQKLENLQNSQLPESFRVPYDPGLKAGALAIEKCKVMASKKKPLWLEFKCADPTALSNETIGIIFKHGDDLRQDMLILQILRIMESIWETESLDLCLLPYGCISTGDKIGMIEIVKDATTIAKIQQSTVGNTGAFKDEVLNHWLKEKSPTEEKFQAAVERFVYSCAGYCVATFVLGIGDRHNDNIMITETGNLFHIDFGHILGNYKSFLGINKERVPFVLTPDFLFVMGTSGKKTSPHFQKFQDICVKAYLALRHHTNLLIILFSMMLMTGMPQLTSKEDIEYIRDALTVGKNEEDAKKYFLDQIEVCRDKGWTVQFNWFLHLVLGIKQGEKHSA
# T2 sequence (Q16539 whole entry): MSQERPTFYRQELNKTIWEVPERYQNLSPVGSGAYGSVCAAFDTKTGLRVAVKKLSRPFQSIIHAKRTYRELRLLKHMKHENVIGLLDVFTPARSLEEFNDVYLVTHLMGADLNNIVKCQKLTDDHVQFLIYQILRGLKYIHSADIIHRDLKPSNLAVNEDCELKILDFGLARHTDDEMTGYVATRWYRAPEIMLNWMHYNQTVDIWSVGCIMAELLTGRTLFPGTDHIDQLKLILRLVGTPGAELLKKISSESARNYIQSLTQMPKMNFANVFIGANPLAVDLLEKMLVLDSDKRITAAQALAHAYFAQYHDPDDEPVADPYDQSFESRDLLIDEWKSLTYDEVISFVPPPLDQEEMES
# T3 sequence (Q15759 whole entry): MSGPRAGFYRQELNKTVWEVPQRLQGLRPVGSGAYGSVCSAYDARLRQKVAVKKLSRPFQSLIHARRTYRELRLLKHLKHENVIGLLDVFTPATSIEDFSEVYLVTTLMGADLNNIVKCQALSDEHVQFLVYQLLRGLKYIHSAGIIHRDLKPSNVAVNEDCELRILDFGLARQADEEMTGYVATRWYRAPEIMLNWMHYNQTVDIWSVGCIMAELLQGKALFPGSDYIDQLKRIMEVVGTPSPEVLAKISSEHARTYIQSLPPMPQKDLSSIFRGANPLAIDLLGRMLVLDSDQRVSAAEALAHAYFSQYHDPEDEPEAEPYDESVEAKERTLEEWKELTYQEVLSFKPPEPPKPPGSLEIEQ
structure (smiles),measurement,setting,value
Cc1ccc([N+](=O)[O-])cc1S(=O)(=O)N(C)/N=C/c1cnc2ccc(Br)cn12 [Compound 1],inhibition at 0.2 µM,p38 γ,59%
same,H3K27 acetylation,H3K27 acetylation,blocked H3K27 acetylation
same,Activation z-score,Hut78 cells; IL-6 Signaling,−3.109
same,Activation z-score,Hut78 cells; NF-kB signaling,−3.623
same,Activation z-score,Hut78 cells; PI3K signaling,−3.108
same,Activation z-score,Hut78 cells; PI3KI/AKT signaling,−0.63
same,Activation z-score,Hut78 cells; PTEN,1.25
same,Activation z-score,Hut78 cells; Role of NFAT in regulation of the immune response,−3.962
same,Activation z-score,Hut78 cells; Th1 pathway,−3.533
same,Activation z-score,Hut78 cells; Th2 pathway,−2.236
same,Activation z-score,Hut78 cells; Wnt/B-catenin signaling,1.152
same,dose-dependent inhibition of kinase activity,[1],not
same,dose-dependent inhibition of kinase activity,p38β,not
same,pIC50,PI3K p110γ,7.12
same,mRNA level of p38 gamma,p38γ,reduces the mRNA level
